Marks after values point to notes of the source that are not given here.
Legend:
Type in all cases: in vivo
Clearance in dogs = settings: higher than roquinimex
SJL/N female mice = assay: Acute experimental autoimmune encephalomyelitis (aEAE); settings: for % aEAE Inhibition: mice
female rats = assay: Teratogenic effects in the rat (embryotoxicity, external malformations); settings: for % malformed foetuses: rat
DBA/1 male mice = assay: Collagen induced arthritis (type II collagen); settings: dose 5 mg/kg p.o.; for Mean score day 35: day 35, arthritic score
Description: Collagen induced arthritis
DBA/1 male mice between 8 to 10 weeks of age were used for the experiments. On day 0 the mice were immunized intradermally at the base of the tail with bovine type II collagen (100 µg/mouse) in Freund's complete adjuvant. The treatment was given per os daily on days 3 to 7, 10 to 14, 17 to 21, 24 to 28 and 31 to 35. Fifteen days after immunization mice were inspected for signs of arthritis. The animals were inspected three times a week. Every second or third day individual paws of the arthritic animals were scored by a scale from 0-4 (0 = no arthritis, 1 = arthritis in one of the interphalangeal, metatarsophalangeal or intercarpal joints, 2 = two arthritic joints, 3 = three arthritic joints, 4 = as in 3 but with more severe redness and swelling of the paw). The score for each paw was added to give a maximal attainable score of 16 for each mouse.

beagle dogs = assay: Beagle Pain Syndrome (BPS); settings: result in words
Description: Beagle Pain Syndrome (BPS)
The compounds were administrated intravenously to beagle dogs. The dosage was given for five consecutive days. The dogs were evaluated for clinical and laboratory signs of the pain syndrome, e.g., fever, increased erythrocyte sedimentation rate (ESR), […] (AP), induction of acute phase proteins and vasculitis.

| SMILES | % aEAE Inhibition (SJL/N female mice; 0.2 mg/kg p.o.) [%] | % aEAE Inhibition (SJL/N female mice; 1 mg/kg p.o.) [%] | % aEAE Inhibition (SJL/N female mice; 5 mg/kg p.o.) [%] | Incidence (%) day 35 (DBA/1 male mice) [%] | Mean score day 35 (DBA/1 male mice) | further results |
| --- | --- | --- | --- | --- | --- | --- |
| Cn1c(=O)c(C(=O)Nc2ccccc2)c(O)c2ccccc21 [A] |  |  |  |  |  | clearance (Cl) in comparison with roquinimex (Clearance in dogs): 800 fold |
| CCN(C(=O)c1c(O)c2c(Cl)cccc2n(C)c1=O)c1ccccc1 [Compound B, N-ethyl-N-phenyl-1,2-dihydro-4-hydroxy-5-chloro-1-methyl-2-oxo-quinoline-3-carboxamide] | 74 | 98 | 96 |  |  | % aEAE Inhibition (SJL/N female mice; 0.04 mg/kg p.o.): 60%; % malformed foetuses (female rats; 6 mg/kg, route s.c.): 0^a) %; % malformed foetuses (female rats; 30 mg/kg, route s.c.): 1^a) % |
| CCN(C(=O)c1c(O)c2c(OC)cccc2n(C)c1=O)c1ccccc1 [Compound C, N-ethyl-N-phenyl-1,2-dihydro-4-hydroxy-5-methoxy-1-methyl-2-oxo-quinoline-3-carboxamide] | 71 | 73 | 90 |  |  | % aEAE Inhibition (SJL/N female mice; 0.04 mg/kg p.o.): 48% |
| CCN(C(=O)c1c(O)c2ccccc2n(C)c1=O)c1ccccc1 [Compound F, N-ethyl-N-phenyl-1,2-dihydro-4-hydroxy-1-methyl-2-oxo-quinoline-3-carboxamide, reference compound] |  |  | 63 |  |  |  |
| CN(C(=O)c1c(O)c2c(Cl)cccc2n(C)c1=O)c1ccccc1 [Compound G, N-methyl-N-phenyl-1,2-dihydro-4-hydroxy-5-chloro-1-methyl-2-oxo-quinoline-3-carboxamide] |  |  |  |  |  | % malformed foetuses (female rats; 6 mg/kg, route s.c.): 37^a) % |
| CCN(C(=O)c1c(O)c2c(Br)cccc2n(C)c1=O)c1ccccc1 [D, N-ethyl-N-phenyl-1,2-dihydro-4-hydroxy-5-bromo-1-methyl-2-oxo-quinoline-3-carboxamide] |  |  |  | 30 | 0.4 |  |
| CCN(C(=O)c1c(O)c2c3c(ccc2n(C)c1=O)OCO3)c1ccccc1 [E, N-ethyl-N-phenyl-1,2-dihydro-4-hydroxy-5,6-methylenedioxy-1-methyl-2-oxo-quinoline-3-carboxamide] |  |  |  | 10 | 0.1 |  |
| CN(C(=O)c1c(O)c2ccccc2n(C)c1=O)c1ccccc1 [Roquinimex, N-methyl-N-phenyl-1,2-dihydro-4-hydroxy-1-methyl-2-oxo-quinoline-3-carboxamide, reference compound] | 35 | 40 | 69 | 50 | 1.7 | inhibition of EAE in mice (SJL/N female mice; 5 mg/kg, treatment control): 70%; % malformed foetuses (female rats; 10 mg/kg, route p.o.): 9^b) %; % malformed foetuses (female rats; 30 mg/kg, route p.o.): 30^b) %; teratogenic effect in the rat (female rats; result in words): teratogenic; Beagle Pain Syndrome (BPS) (beagle dogs): induce the Beagle Pain Syndrome |

Reference: EP1073639B1, “QUINOLINE DERIVATIVES” (Active Biotech AB, priority 1998, dated 1999)
